Test results as given in patent US12486304B2, “Peptide ligand targeting carbonic anhydrase IX, peptide construct comprising same, and uses thereof” (priority 2022, dated 2025).
*1 amine or outer side, *2 acyl side, *3 side chain or, on linkers, in order; H or OH if unused. Where a SMILES comes first, the peptide text is derived from it. [ ]: non-standard residue; d: D form. X1 = NS(=O)(=O)c1ccc(-c2cn(CCCC[C@H](N[*:1])C(=O)[*:2])nn2)cc1

Conditions: human, 168 h
Experimental: A solution of the peptide structure diluted to a final concentration of 50 μm in 1 mL of 100% pure human serum (Cat #S1, Merk) or plasma (Cat #70039.1, [sequence] Technologies) [or 100% pure mouse serum (Sigma, Cat #S7273) or plasma (Rockland, Cat #D508-06-0050)] was divided into 100 μL. Then, while stored at 37° C., analysis was performed once a day for 7 days using the LC-MS (1260 Infinity II, Infinity Lab LC/MSD, Aglient) equipped with the Agilent Poroshell 120 EC-C18 column (4.6×50 mm, 2.7 μm). Before injecting the sample into the LC, 100 μL of ACN was added to the serum or plasma solution containing the peptides, then put into the centrifuge and spun to settle the precipitate, and only 10 μL of the supernatant was used for analysis.

Compound: C[C@H](O)[C@H]1NC(=O)[C@@H](Cc2ccccc2)NC(=O)[C@@H](Cc2c[nH]cn2)NC(=O)[C@@H](Cc2ccccc2)NC(=O)[C@@H](CCCNC(=N)N)NC(=O)[C@@H](CCCNC(=N)N)NC(=O)[C@H](CCCCn2cc(-c3ccc(S(N)(=O)=O)cc3)nn2)NC(=O)[C@H](CCC(N)=O)NC(=O)CNC(=O)[C@@H](Cc2c[nH]cn2)NC1=O [No. 35] (cyclo(Q[X1][dR][dR][dF][dH][dF][dT][dH]G))
- Stability in plasma: not degraded at all and was completely maintained even after 6 days
